Laboratory results: patent publication US12472272B2, “Radiolabelled compounds for diagnosis or treatment of prostate-specific membrane antigen- expressing cancer” (PROVINCIAL HEALTH SERVICES AUTHORITY, priority 2019, dated 2025)
“Also recorded” adds a separate entry of the source.

Tests used:
[1] = test system: PSMA-expressing cancer xenografts (LNCaP); assay: Biodistribution of ^177Lu-labeled HTK03041; format: in vivo, mice; settings: for Tissue (% ID/g): Salivary / Tissue (% ID/g): Seminal / Tissue (% ID/g): Spleen / Tissue (% ID/g): Stomach / Tissue (% ID/g): Tail / Tissue (% ID/g): Testes / Tissue (% ID/g): Thyroid / Tissue (% ID/g): Tumor / Tissue (% ID/g): Urine / tumor-to-background contrast ratio Tumor: Blood / tumor-to-background contrast ratio Tumor: Muscle / tumor-to-background contrast ratio Tumor: kidney / Tissue (% ID/g): Adrenal glands / Tissue (% ID/g): Blood / Tissue (% ID/g): Bone / Tissue (% ID/g): Brain / Tissue (% ID/g): Fat / Tissue (% ID/g): Heart / Tissue (% ID/g): Intestine / Tissue (% ID/g): Kidneys / Tissue (% ID/g): Lacrimal / Tissue (% ID/g): Liver / Tissue (% ID/g): Lungs / Tissue (% ID/g): Muscle / Tissue (% ID/g): Pancreas: ^177Lu
Protocol: (§1) Imaging and biodistribution experiments were performed using NODSCID 1L2RγKO male mice. Mice were anesthetized by inhalation with 2% isoflurane in oxygen, and implanted subcutaneously with 1×10^7 LNCaP cells behind left shoulder. Mice were imaged or used in biodistribution studies when the tumor grew up to reach 5-8 mm in diameter during 5-6 weeks.
(§2) SPECT/CT imaging experiments were conducted using the MlLabs (Utrecht, the Netherlands) U-SPECT-II/CT scanner. Each tumor bearing mouse was injected with ˜37 MBq of ^177Lu-labeled HTK03041 through the tail vein under anesthesia (2% isoflurane in oxygen). The mice were allowed to recover and roam freely in their cage and imaged at 1, 4, 24, 72 and 120 hours after injection. At each time point, the mice were sedated again and positioned in the scanner. A 5-min CT scan was conducted first for anatomical reference with a voltage setting at 60 kV and current at 615 μA followed by a 60-min static emission scan acquired in list mode using an ultra-high resolution multi-pinhole rat-mouse (1 mm pinhole size) collimator. Data were reconstructed using the U-SPECT II software with a 20% window width on three energy windows. The photopeak window was centered at 208 keV, with lower scatter and upper scatter windows centered at 170 and 255 keV, respectively. Reconstruction parameters used maximum-likelihood expectation maximization (3 iterations), pixel-based ordered subset expectation maximization (16 subsets), and a post-processing filter (Gaussian blurring) of 0.5 mm. Images were decay corrected to injection time in PMOD (PMOD Technologies, Switzerland) then converted to DICOM for qualitative visualization in Inveon Research Workplace (Siemens Medical Solutions USA, Inc.).
For biodistribution studies, the mice were injected with the radiotracer as described above. At predetermined time points (1 or 3 h for ^68Ga studies; 1, 4, 24, 72, or 120 h for ^177Lu studies), the mice was anesthetized with 2% isoflurane inhalation, and euthanized by CO2 inhalation. Blood was withdrawn immediately from the heart, and the organs/tissues of interest were collected. The collected organs/tissues were weighed and counted using a Perkin Elmer (Waltham, MA) Wizard2 2480 gamma counter. The uptake in each organ/tissue was normalized to the injected dose using a standard curve, and expressed as the percentage of the injected dose per gram of tissue (% ID/g).

[2] = test system: LNCaP tumors; assay: SPECT/CT imaging of ^177Lu-labeled HTK03041; format: in vivo, mice; settings: 1 h to 120 h post-injection, FIG. 4
Protocol: as §1
as §2, with “Reconstruction parameters used maximum-likelihood expectation maximization (3 iterations), pixel-based ordered subset expectation maximization (16 subsets), and a post-processing filter (Gaussian blurring) of 0.5 mm. Images were decay corrected to injection time in PMOD (PMOD Technologies, Switzerland) then converted to DICOM for qualitative visualization in Inveon Research Workplace (Siemens Medical Solutions USA, Inc.).” left out

O=C([O-])CN1CCN(CC(=O)[O-])CCN(CC(=O)NC[C@H]2CC[C@H](C(=O)N[C@@H](Cc3c4ccccc4cc4ccccc34)C(=O)NCCCC[C@H](NC(=O)N[C@@H](CCC(=O)O)C(=O)O)C(=O)O)CC2)CCN(CC(=O)[O-])CC1.[177Lu+3] [^177Lu-HTK03041]
Tissue (% ID/g): Salivary ([1]; 24 h post-injection): 0.40 ± 0.06 % ID/g
Tissue (% ID/g): Seminal ([1]; 24 h post-injection): 0.23 ± 0.13 % ID/g
Tissue (% ID/g): Spleen ([1]; 24 h post-injection): 0.59 ± 0.19 % ID/g
Tissue (% ID/g): Stomach ([1]; 24 h post-injection): 0.18 ± 0.04 % ID/g
Tissue (% ID/g): Tail ([1]; 24 h post-injection): 0.34 ± 0.17 % ID/g
Tissue (% ID/g): Testes ([1]; 24 h post-injection): 0.40 ± 0.08 % ID/g
Tissue (% ID/g): Thyroid ([1]; 24 h post-injection): 0.47 ± 0.09 % ID/g
Tissue (% ID/g): Tumor ([1]; 24 h post-injection): 19.8 ± 6.13 % ID/g
Tissue (% ID/g): Urine ([1]; 24 h post-injection): 23.8 ± 8.50 % ID/g
tumor-to-background contrast ratio Tumor: Blood ([1]; 24 h post-injection): 282 ± 82.6
tumor-to-background contrast ratio Tumor: Muscle ([1]; 24 h post-injection): 142 ± 30.1
tumor-to-background contrast ratio Tumor: kidney ([1]; 24 h post-injection): 0.97 ± 0.15
Tissue (% ID/g): Adrenal glands ([1]; 72 h post-injection): 0.12 ± 0.05 % ID/g
Tissue (% ID/g): Blood ([1]; 72 h post-injection): 0.02 ± 0.00 % ID/g
Tissue (% ID/g): Bone ([1]; 72 h post-injection): 0.02 ± 0.01 % ID/g
Tissue (% ID/g): Brain ([1]; 72 h post-injection): 0.01 ± 0.00 % ID/g
Tissue (% ID/g): Fat ([1]; 72 h post-injection): 0.03 ± 0.01 % ID/g
Tissue (% ID/g): Heart ([1]; 72 h post-injection): 0.07 ± 0.02 % ID/g
Tissue (% ID/g): Intestine ([1]; 72 h post-injection): 0.13 ± 0.04 % ID/g
Tissue (% ID/g): Kidneys ([1]; 72 h post-injection): 1.27 ± 0.58 % ID/g
Tissue (% ID/g): Lacrimal ([1]; 72 h post-injection): 0.01 ± 0.01 % ID/g
Tissue (% ID/g): Liver ([1]; 72 h post-injection): 0.13 ± 0.05 % ID/g
Tissue (% ID/g): Lungs ([1]; 72 h post-injection): 0.14 ± 0.04 % ID/g
Tissue (% ID/g): Muscle ([1]; 72 h post-injection): 0.02 ± 0.01 % ID/g
Tissue (% ID/g): Pancreas ([1]; 72 h post-injection): 0.05 ± 0.02 % ID/g
Tissue (% ID/g): Salivary ([1]; 72 h post-injection): 0.08 ± 0.03 % ID/g
Tissue (% ID/g): Seminal ([1]; 72 h post-injection): 0.03 ± 0.01 % ID/g
Tissue (% ID/g): Spleen ([1]; 72 h post-injection): 0.12 ± 0.04 % ID/g
Tissue (% ID/g): Stomach ([1]; 72 h post-injection): 0.19 ± 0.09 % ID/g
Tissue (% ID/g): Tail ([1]; 72 h post-injection): 0.13 ± 0.08 % ID/g
Tissue (% ID/g): Testes ([1]; 72 h post-injection): 0.08 ± 0.02 % ID/g
Tissue (% ID/g): Thyroid ([1]; 72 h post-injection): 0.09 ± 0.02 % ID/g
Tissue (% ID/g): Tumor ([1]; 72 h post-injection): 15.2 ± 4.72 % ID/g
Tissue (% ID/g): Urine ([1]; 72 h post-injection): 0.67 ± 0.22 % ID/g
tumor-to-background contrast ratio Tumor: Blood ([1]; 72 h post-injection): 805 ± 164
tumor-to-background contrast ratio Tumor: Muscle ([1]; 72 h post-injection): 647 ± 119
tumor-to-background contrast ratio Tumor: kidney ([1]; 72 h post-injection): 13.1 ± 3.75
Tissue (% ID/g): Adrenal glands ([1]; 120 h post-injection): 0.11 ± 0.11 % ID/g
Tissue (% ID/g): Blood ([1]; 120 h post-injection): 0.01 ± 0.01 % ID/g
Tissue (% ID/g): Bone ([1]; 120 h post-injection): 0.02 ± 0.00 % ID/g
Tissue (% ID/g): Brain ([1]; 120 h post-injection): 0.01 ± 0.00 % ID/g
Tissue (% ID/g): Fat ([1]; 120 h post-injection): 0.05 ± 0.09 % ID/g
Tissue (% ID/g): Heart ([1]; 120 h post-injection): 0.06 ± 0.02 % ID/g
Tissue (% ID/g): Intestine ([1]; 120 h post-injection): 0.06 ± 0.03 % ID/g
Tissue (% ID/g): Kidneys ([1]; 120 h post-injection): 1.06 ± 0.74 % ID/g
Tissue (% ID/g): Lacrimal ([1]; 120 h post-injection): 0.01 ± 0.01 % ID/g
Tissue (% ID/g): Liver ([1]; 120 h post-injection): 0.13 ± 0.04 % ID/g
Tissue (% ID/g): Lungs ([1]; 120 h post-injection): 0.10 ± 0.04 % ID/g
Tissue (% ID/g): Muscle ([1]; 120 h post-injection): 0.02 ± 0.02 % ID/g
Tissue (% ID/g): Pancreas ([1]; 120 h post-injection): 0.04 ± 0.01 % ID/g
Tissue (% ID/g): Salivary ([1]; 120 h post-injection): 0.06 ± 0.04 % ID/g
Tissue (% ID/g): Seminal ([1]; 120 h post-injection): 0.02 ± 0.01 % ID/g
Tissue (% ID/g): Spleen ([1]; 120 h post-injection): 0.22 ± 0.11 % ID/g
Tissue (% ID/g): Stomach ([1]; 120 h post-injection): 0.05 ± 0.04 % ID/g
Tissue (% ID/g): Tail ([1]; 120 h post-injection): 0.11 ± 0.07 % ID/g
Tissue (% ID/g): Testes ([1]; 120 h post-injection): 0.06 ± 0.01 % ID/g
Tissue (% ID/g): Thyroid ([1]; 120 h post-injection): 0.08 ± 0.03 % ID/g
Tissue (% ID/g): Tumor ([1]; 120 h post-injection): 22.3 ± 6.90 % ID/g
Tissue (% ID/g): Urine ([1]; 120 h post-injection): 0.29 ± 0.04 % ID/g
tumor-to-background contrast ratio Tumor: Blood ([1]; 120 h post-injection): 1670 ± 272
tumor-to-background contrast ratio Tumor: Muscle ([1]; 120 h post-injection): 1215 ± 512
tumor-to-background contrast ratio Tumor: kidney ([1]; 120 h post-injection): 25.4 ± 9.59
tumor uptake over the investigated time points ([1]; up to 120 h post-injection): remained at the similar level throughout the investigated time points; also recorded: sustained over the course of the study
uptake in background tissues including kidneys in SPECT images [2]: cleared quickly over time
uptake in tumor in SPECT images [2]: sustained over the course the study
